Laboratory results reported in ChEMBL document CHEMBL4138146, “A Schmidt rearrangement-mediated synthesis of novel tetrahydro-benzo[1,4]diazepin-5-ones as potential anticancer and antiprotozoal agents” (Eur J Med Chem, 2017).

How the values were obtained:
Format in all cases: functional
NCI/ADR-RES = assay: Growth inhibition of human NCI/ADR-RES cells assessed as cell growth at 10^-8 M incubated for 48 hrs by sulforhodamine B assay relative to control; conditions: read-out: Activity
HCT-116 = assay: Growth inhibition of human HCT116 cells assessed as cell growth at 10^-4 M incubated for 48 hrs by sulforhodamine B assay relative to control; conditions: HCT-116, 48 h, read-out: Activity
CCRF-CEM = assay: Growth inhibition of human CCRF-CEM cells assessed as cell growth at 10^-8 M incubated for 48 hrs by sulforhodamine B assay relative to control; conditions: read-out: Activity
LOX IMVI = assay: Growth inhibition of human LOXIMVI cells assessed as cell growth at 10^-7 M incubated for 48 hrs by sulforhodamine B assay relative to control; conditions: read-out: Activity

## CCCCOc1nc2ccccc2cc1C1CNC(=O)c2ccccc2N1 (centres undefined)
NCI/ADR-RES
  growth at 0.01 µM: 94%
HCT-116
  growth at 100 µM: -67%
CCRF-CEM
  growth at 0.01 µM: 98%
LOX IMVI
  growth at 0.1 µM: 93%
